{
  "source": "patent US20080154102A1",
  "about": "“Intraoperative imaging methods” (priority 2006, published 2008)",
  "key": {"thoracic duct": {"system": "thoracic duct", "test": "Thoracic duct mapping in pigs", "format": "in vivo", "settings": "5 mL of 1% into inguinal lymph node", "experimental": "In anesthetized pigs, 5 mL of 1% methylene blue was injected into an inguinal lymph node, then the thoracic duct was observed."}, "[1]": {"system": "coronary arteries and myocardium", "test": "Angiographic and myocardial perfusion imaging in pigs", "format": "in vivo", "experimental": "(§1) Male Sprague-Dawley, 300 g rats obtained from Charles River Laboratories (Wilmington, Mass.) were anesthetized with 65 mg/kg IP pentobarbital. 30 kg adult female Yorkshire pigs (E.M. Parsons & Sons, Hadley, Mass.) were induced with 4.4 mg/kg intramuscular Terazol (Fort Dodge Labs, Fort Dodge, Iowa). Pigs were intubated and maintained with 1.5-2% isoflurane.\n(§2) In anesthetized rats, 0.1, 0.5 and 1 mg/kg MB were injected intravenously, and then images were taken during 15 min after injection. Signal to background ratio (SBR) (the signal of left anterior descending branch of coronary artery (LAD) relative to that of chest wall, and the signal of myocardium relative to that of chest wall) was quantified using the same region of interest (ROI) through entire observation. In anesthetized pigs, 100 μL/kg of 0.5% methylene blue (1.6 μmol/kg) was injected intravenously and then the hearts were observed using the imaging system described herein. For multi-wavelength fluorescence imaging, 0.25 ml of 100 μM ICG (75 nmol/kg) was injected intravenously in rats and 0.06 mg/kg ICG (75 nmol/kg) in pigs.\nThe system was adjusted to account for the optical properties of methylene blue. Briefly, the light source of the original system is composed of a white light source and a near-infrared light source. The surgical field is illuminated with both lights, and its excitation fluence rate is 5 mW/cm^2. […]"}, "[2]": {"settings": "clinical use; cited from earlier work"}, "[3]": {"test": "Fluorescence spectrometry and fluorescence quantum yield", "format": "physicochemical", "experimental": "(§3) Absorbance spectrometry was performed with a 1-cm path length quartz cuvette in a USB2000 fiber-optic spectrometer (Ocean Optics, Dunedin, Fla.). Fluorescence spectrometry was performed with a 1-cm path length, 1.5 mL disposable methacrylate cuvette (Fisher Scientific, Hampton, N.H.) in a HR2000 fiber-optic spectrometer, and CUV-ALL-UV four-way cuvette holder (Ocean Optics), using a 655 nm laser diode light source (OPCOM O.E. Inc., Xiamen, China) with maximum output less than 5 mW. Data acquisition was performed with a computer using an OOI-Base32 spectrometer operating software package (Ocean Optics). The spectral range of the USB2000-FL spectrometer was from 350 to 1000 nm with spectral resolution of 7.6 nm, and that of the HR2000 spectrometer was from 200 to 1100 nm with a spectral resolution of 6.7 nm.\nFluorescence intensity was measured in each solvent (PBS, FBS, and methanol) at each concentration of the dye to determine the effect of the methylene blue concentration and solvents on total fluorescence yield. Fluorescence quantum yields of methylene blue in PBS, FBS, and methanol were calculated using oxazine725 in ethylene glycol (quantum yield: 19%) as a calibration standard, under the conditions of matched absorbance of methylene blue in each solvent."}, "[4]": {"test": "Environment-, concentration- and pH-dependence of MB fluorescence", "format": "physicochemical", "experimental": "For the experiment shown in FIG. 1A, pure methylene blue powder was dissolved in phosphate-buffered saline (pH 7.4), 100% fetal bovine serum, or absolute methanol, at the concentration shown, and fluorescence intensity (arbitrary values) measured.\nFor this experiment, pure methylene blue powder was dissolved in PBS, FBS, or methanol, at the concentrations shown in FIGS. 1A-C, the spectrum of its absorbance and fluorescence emission obtained, and the peak of each identified.\nFinally, the pH dependence of MB was examined, by dissolving MB in PBS (pH 6), Ascorbic Acid, HCl, and a NaHCO3-buffered solution. […] This is an important consideration because intermolecular quenching and internal absorption often limit the usable dose range of fluorescent contrast agents."}, "Absorbance spectrometry": {"test": "Absorbance spectrometry", "format": "physicochemical", "experimental": "as §3"}, "parathyroid gland": {"system": "parathyroid gland", "test": "Parathyroid gland imaging using methylene blue", "format": "in vivo", "settings": "2 mg/kg over 15 minutes, along with NaHCO3", "experimental": "To determine whether MB fluorescence emissions could be used to image the parathyroid gland, 2 mg/kg MB was administered over 15 minutes, along with NaHCO3, prior to surgery."}, "[5]": {"system": "common bile duct, vasculature, coronary artery, myocardium", "test": "Multi-wavelength fluorescence imaging with MB and ICG", "format": "in vivo, pigs", "settings": "pig, ICG 800 nm, MB 700 nm", "experimental": "Therefore, MB was used to visualize CBD in an anesthetized pig, while ICG was used to visualize vasculature.\nTo evaluate the possibility of multi-wavelength fluorescent imaging, ICG and methylene blue were used.\n1 mg/kg methylene blue IV injection was followed 30 min after by 0.03 mg/kg ICG IV injection. […] NIR camera exposure time was 100 msec.\nNext, one of the diagonal branches of the coronary artery (D2) was clamped (white arrow), and then 1 mg/kg of methylene blue was injected intravenously; see the second row of images. Just after releasing the clamp, 0.03 mg/kg ICG was injected intravenously. […] The right-most image in the second row was created by merging the image of the coronary arteriography using methylene blue at clamping D2 and the image using ICG after declamping D2."}, "ureter": {"system": "ureter", "test": "Ureteral mapping with methylene blue in pigs", "format": "in vivo", "settings": "preclinical studies, in some cases", "experimental": "In anesthetized 3 pigs, 1 mg/kg of methylene blue was injected intravenously and then the abdomen was opened surgically and ureter was identified by imaging. For pelvic arteriography, 0.06 mg/kg ICG (75 nmol/kg) was injected intravenously."}, "common bile duct [6]": {"system": "common bile duct", "test": "Cholangiographic imaging with methylene blue in rats", "format": "in vivo", "settings": "1 mg/kg iv", "experimental": "In anesthetized rats, 100 μL/kg of 1% MB (1 mg/kg) was injected intravenously via penile vein. A simultaneous color video/NIR fluorescence intraoperative imaging system was employed for quantification of fluorescence images. For multi-wavelength fluorescence imaging, 0.25 ml of 100 uM ICG (75 nmol/kg) was injected intravenously in rat and hepatic arteriography and portography can be seen."}, "common bile duct [7]": {"system": "common bile duct", "test": "Cholangiographic imaging with methylene blue in pigs", "format": "in vivo", "experimental": "In anesthetized pigs, bile duct was visualized by intravenous injection of 100 μL/kg of 1% MB, or direct cannulation into the common bile duct for injection of 50 μM of MB. Fluorescence intensities of bile duct, liver (right lobe), and abdominal wall were measured at 3, 5, 10, 20, and 30 minutes following injection. For hepatic arteriography and portography, 0.06 mg/kg ICG (75 nmol/kg) is injected intravenously."}, "[8]": {"system": "coronary arteries and myocardium", "test": "Angiographic and myocardial perfusion imaging in rats", "format": "in vivo", "experimental": "as §1, §2\nThe system was adjusted to account for the optical properties of methylene blue. Briefly, the light source of the original system is composed of a white light source and a near-infrared light source. The surgical field is illuminated with both lights, and its excitation fluence rate is 5 mW/cm^2. White light and near-infrared images were able to be captured separately using a dichroic filter cube set, and these images could be merged. Images were captured and refreshed 15 times a second.\nThe system was modified in 3 ways for use with MB. First, the white lights were filtered with HQ675SP (Chroma Technology, Brattleboro, Vt.). Second, 4 pairs of 400 mA, 660 nm LEDs were added and filtered with HQ650/45X (chroma.) instead of the near-infrared light source. Excitation fluence rate with this new light source is 1 mW/cm^2. Third, the dichroic filter and emission filter were changed to 680 dcxr (chroma.), HQ700/35 (chroma.), respectively."}},
  "data": [
    {"smiles": "CN(C)c1ccc2nc3ccc(=[N+](C)C)cc-3sc2c1", "note": "[Methylene Blue, methylene blue]", "values": [
      {"measurement": "thoracic duct in the color image", "setting": "thoracic duct", "result": "very faint blue color"},
      {"measurement": "thoracic duct in the fluorescence image", "setting": "thoracic duct", "result": "clearly visualized in the fluorescence image"},
      {"measurement": "signal of myocardium distal to occlusion vs well-perfused myocardium", "setting": "[1]; ligation of diagonal branch of left anterior descending artery", "result": "five-fold lower signal"},
      {"measurement": "average SBR of whole heart wall fluorescence", "setting": "[1]; pig, intravenous injection via external jugular vein", "result": "about 1.5"},
      {"measurement": "dose that sometimes causes severe adverse reactions (methemoglobinaemia or anaphylaxis)", "setting": "[2]", "result": 7.5, "unit": "mg/kg"},
      {"measurement": "Emission Wavelength Maximum, (FBS)", "setting": "[3]; in FBS", "result": "685 (685) nm"},
      {"measurement": "Fluorescence Quantum Yield, (FBS)", "setting": "[3]; in FBS", "result": 2.5, "unit": "%"},
      {"measurement": "Emission Wavelength Maximum, PBS", "setting": "[3]; in PBS", "result": "685 (685) nm"},
      {"measurement": "Fluorescence Quantum Yield, PBS", "setting": "[3]; in PBS", "result": 5.5, "unit": "%"},
      {"measurement": "Emission Wavelength Maximum, [MtOH]", "setting": "[3]; in methanol", "result": "[681] nm"},
      {"measurement": "Fluorescence Quantum Yield, [MtOH]", "setting": "[3]; in methanol", "result": "[9.5] %"},
      {"measurement": "emission wavelength of MB", "setting": "[3]; peak shifts as a function of dye concentration, listed as MB", "result": "690-700 nm"},
      {"measurement": "fluorescence in acidic solutions", "setting": "[4]; Ascorbic Acid, HCl", "result": "essentially no fluorescence"},
      {"measurement": "fluorescence at the more basic pH", "setting": "[4]; PBS (pH 6), NaHCO3-buffered solution", "result": "significant fluorescence"},
      {"measurement": "pH favoring the fluorescent methylene blue form", "setting": "[4]; equilibrium with leucomethylene blue", "result": "≥ 6"},
      {"measurement": "concentration of peak fluorescence intensity", "setting": "[4]; intermediate concentrations", "result": "4 to 50", "unit": "µM"},
      {"measurement": "Excitation Wavelength Maximum, (FBS)", "setting": "Absorbance spectrometry; in FBS", "result": 666, "unit": "nm"},
      {"measurement": "Molar Extinction Coefficient, (FBS)", "setting": "Absorbance spectrometry; in FBS", "result": 86500, "unit": "M⁻¹ cm⁻¹"},
      {"measurement": "Excitation Wavelength Maximum, PBS", "setting": "Absorbance spectrometry; in PBS", "result": 665, "unit": "nm"},
      {"measurement": "Molar Extinction Coefficient, PBS", "setting": "Absorbance spectrometry; in PBS", "result": 71500, "unit": "M⁻¹ cm⁻¹"},
      {"measurement": "Excitation Wavelength Maximum, [MtOH]", "setting": "Absorbance spectrometry; in methanol", "result": "[653] nm"},
      {"measurement": "Molar Extinction Coefficient, [MtOH]", "setting": "Absorbance spectrometry; in methanol", "result": "[71500] M^−1cm^−1"},
      {"measurement": "visibility of the parathyroid", "setting": "parathyroid gland", "result": "visible"},
      {"measurement": "structure shown in two-channel NIR imaging", "setting": "[5]", "result": "shows the CBD"},
      {"measurement": "performance in the ureter", "setting": "ureter", "result": "less than optimal performance"},
      {"measurement": "dye stacking in the liver", "setting": "common bile duct [6]", "result": "No dye stacking in the liver was observed"},
      {"measurement": "time of maximal ratio of CBD intensity relative to pancreas and liver", "setting": "common bile duct [6]", "result": "around 10 minutes"},
      {"measurement": "time ratio of CBD intensity stayed steady after injection", "setting": "common bile duct [6]", "result": "at least 30 minutes"},
      {"measurement": "time until CBD detectable after intravenous injection", "setting": "common bile duct [6]", "result": "2 to 3", "unit": "min"},
      {"measurement": "CBD visualization after direct retrograde administration", "setting": "common bile duct [7]; direct cannulation into CBD", "result": "successfully visualized the CBD"},
      {"measurement": "identification of intrahepatic bile duct by fluorescence", "setting": "common bile duct [7]; during hepatic dissection", "result": "not identifiable"},
      {"measurement": "detection of common bile duct", "setting": "common bile duct [7]; intravenous", "result": "detectable"},
      {"measurement": "detection of peripheral branches and coronary vein", "setting": "[8]", "result": "not detectable"},
      {"measurement": "intravascular (arterial) signals", "setting": "[8]; 0.1 mg/kg intravenously", "result": "not detected"},
      {"measurement": "detection of coronary arteries", "setting": "[8]; 0.5 and 1.0 mg/kg intravenously", "result": "could be detected"},
      {"measurement": "homogenous signal from the heart wall", "setting": "[8]; all loading doses", "result": "detectable"}
    ]}
  ]
}
